Values quoted from earlier work as cited in US20080317843A1, “NANOPARTICULATE FORMULATIONS OF MODAFINIL” (Elan Corporation plc, priority 2006, published 2008).

Key:
[1] = for share of trough concentration (Cminss) of circulating modafinil: after once daily dosing
MAO-B = molecular target: T1, MAO-B (Homo sapiens, UniProt P27338)
T1 sequence (P27338 1-520): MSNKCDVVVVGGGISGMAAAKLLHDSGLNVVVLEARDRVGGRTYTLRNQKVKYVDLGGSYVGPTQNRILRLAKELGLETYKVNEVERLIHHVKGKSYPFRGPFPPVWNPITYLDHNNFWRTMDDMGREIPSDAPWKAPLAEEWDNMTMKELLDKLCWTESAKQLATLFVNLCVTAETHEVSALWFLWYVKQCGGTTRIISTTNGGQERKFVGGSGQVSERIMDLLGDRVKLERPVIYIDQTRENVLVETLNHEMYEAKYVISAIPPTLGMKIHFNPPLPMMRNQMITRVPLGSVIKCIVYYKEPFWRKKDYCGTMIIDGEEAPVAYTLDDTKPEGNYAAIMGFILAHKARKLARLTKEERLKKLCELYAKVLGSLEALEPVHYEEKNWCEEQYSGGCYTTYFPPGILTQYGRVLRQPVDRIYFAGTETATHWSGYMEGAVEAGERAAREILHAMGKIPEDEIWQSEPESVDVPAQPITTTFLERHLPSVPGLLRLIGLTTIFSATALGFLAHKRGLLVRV

receptors for GABA = conditions: pharmacologically relevant concentrations
receptors for adenosine = conditions: pharmacologically relevant concentrations
[2] = molecular target: receptors for histamine-3 (Homo sapiens, UniProt Q9Y5N1); conditions: pharmacologically relevant concentrations
Chain of receptors for histamine-3 (Q9Y5N1 whole entry): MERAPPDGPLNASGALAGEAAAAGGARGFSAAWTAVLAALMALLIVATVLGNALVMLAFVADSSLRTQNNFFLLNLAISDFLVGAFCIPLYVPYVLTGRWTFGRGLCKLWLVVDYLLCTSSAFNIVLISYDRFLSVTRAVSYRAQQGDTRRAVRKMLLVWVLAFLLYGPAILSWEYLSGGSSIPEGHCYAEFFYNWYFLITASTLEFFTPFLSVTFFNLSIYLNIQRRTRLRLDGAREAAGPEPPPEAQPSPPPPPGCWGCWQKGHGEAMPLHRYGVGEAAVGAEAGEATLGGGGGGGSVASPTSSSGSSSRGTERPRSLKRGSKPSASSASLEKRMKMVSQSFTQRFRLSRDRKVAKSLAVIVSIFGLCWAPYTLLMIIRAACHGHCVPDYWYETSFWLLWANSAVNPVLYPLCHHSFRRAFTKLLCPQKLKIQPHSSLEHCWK

CYP2C19 = CYP2C19 (Homo sapiens, UniProt P33261)
Chain of CYP2C19 (P33261 whole entry): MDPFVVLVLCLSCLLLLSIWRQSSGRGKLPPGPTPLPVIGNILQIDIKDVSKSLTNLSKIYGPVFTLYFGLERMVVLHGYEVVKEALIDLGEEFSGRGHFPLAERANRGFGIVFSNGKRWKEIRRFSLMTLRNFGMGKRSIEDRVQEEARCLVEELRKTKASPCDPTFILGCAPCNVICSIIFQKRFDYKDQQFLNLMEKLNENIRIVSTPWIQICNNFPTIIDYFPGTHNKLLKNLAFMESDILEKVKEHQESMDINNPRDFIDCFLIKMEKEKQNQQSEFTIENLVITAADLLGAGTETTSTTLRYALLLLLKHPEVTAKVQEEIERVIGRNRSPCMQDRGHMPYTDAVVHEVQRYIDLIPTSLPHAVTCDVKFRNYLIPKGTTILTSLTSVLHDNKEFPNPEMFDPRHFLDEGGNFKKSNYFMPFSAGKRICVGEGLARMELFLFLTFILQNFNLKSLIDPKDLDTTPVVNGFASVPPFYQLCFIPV

[3] = tested on: receptors for benzodiazepines; conditions: pharmacologically relevant concentrations
receptors for melatonin = conditions: pharmacologically relevant concentrations
receptors for serotonin = conditions: pharmacologically relevant concentrations
[4] = tested on: receptors for norepinephrine; conditions: pharmacologically relevant concentrations
CYP3A4 = conditions: chronic administration of modafinil 400 mg; substrates given orally

In the case of NC(=O)C[S+]([O-])C(c1ccccc1)c1ccccc1 (single isomer, unassigned) [d-isomer], the “share of trough concentration (Cminss) of circulating modafinil” value [1] is listed as 10%.
For NC(=O)C[S+]([O-])C(c1ccccc1)c1ccccc1 (centres unmarked) [modafinil, 2-[(diphenylmethyl)sulfinyl]acetamide], the effective elimination half-life ([1]; after multiple doses) is given as “about 15 hours”, the “decrease in oral clearance (CL/F)” value ([1]; single dose 200 mg, 12 subjects mean age 63 years vs matched younger subjects) is given as about 20% and the “delay of absorption and (tmax) if taken with food” value ([1]; with food) is given as “delayed by approximately one hour”. For the same compound, the “effect of food on overall bioavailability” value ([1]; with food) was “no effect”, the “inhibition of the activity of MAO-B” value (MAO-B) was “does not inhibit” and the “binding to receptors for GABA” value (receptors for GABA) was “does not bind”. For the same compound, the “binding to receptors for adenosine” value (receptors for adenosine) was “does not bind”, the “binding to receptors for histamine-3” value [2] was “does not bind” and the solubility in acetone was “sparingly to slightly soluble”. For the same compound, the aqueous insolubility (aqueous) was under 1000 µg/mL, the solubility in cyclohexane was “practically insoluble” and the solubility in methanol was “sparingly to slightly soluble”. For the same compound, the solubility in water was “practically insoluble”, the “inhibition of CYP2C19” value (CYP2C19) was “reversible inhibitors” and the “binding to receptors for benzodiazepines” value [3] was “does not bind”. The “binding to receptors for melatonin” value (receptors for melatonin) was “does not bind”, the “binding to receptors for serotonin” value (receptors for serotonin) was “does not bind” and the “binding to receptors for norepinephrine” value [4] was “does not bind”. The “systemic exposure to two CYP3A4 substrates, ethinyl estradiol, and triazolam” value (CYP3A4) was “decrease” and the “inhibition of the activities of phosphodiesterases II-V” value (phosphodiesterases II-V) was “does not inhibit”.
In the case of O=C(C[S+]([O-])C(c1ccccc1)c1ccccc1)NO (centres unmarked) [Adrafinil, 2-(diphenylmethyl) sulfinyl acetohydroxamic acid], the solubility in acetone is given as “sparingly to slightly soluble”, the solubility in cyclohexane is given as “practically insoluble” and the solubility in methanol is given as “sparingly to slightly soluble”. For the same compound, the solubility in water was “practically insoluble”.
In the case of NC(=O)C[S@@+]([O-])C(c1ccccc1)c1ccccc1 (single isomer, unassigned) [l-isomer], the “share of trough concentration (Cminss) of circulating modafinil” value [1] is listed as 90%, the “total exposure relative to the d-isomer” value ([1]; at steady state) is listed as “approximately three times” and the “half-life relative to the d-isomer” value ([1]; humans) is listed as “approximately three times”.
For NC(=O)CS(=O)(=O)C(c1ccccc1)c1ccccc1 [modafinil sulfone], the “inhibition of CYP2C19” value (CYP2C19) is listed as “reversible inhibitors”.
